Results published in PubChem BioAssay AID256 (DTP/NCI, 2004).
Values joined by “and” are separate entries in the source; they are usually repeats but may differ in a detail not shown here. Equal values may be shown once. Inconclusive results and toxic doses are left out.

System: CD2F1 mice, L1210 leukemia ip, survival T/C
Assay: NCI In Vivo Anticancer Drug Screen. Data for tumor model L1210 Leukemia (intraperitoneal) in CD2F1 (CDF1) mice
Conditions: higher = longer survival
Method in brief: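 Implant tumor; dose compound or vehicle; measure endpoint in both groups; report treated divided by control.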

[1] = endpoint: mean survival time, dose: 100.0 mg/kg/injection, schedule: Q01DX009 (ip), vehicle: saline with Tween-80
[2] = endpoint: mean survival time, dose: 200.0 mg/kg/injection, schedule: Q01DX009 (ip), vehicle: saline with Tween-80
[3] = endpoint: mean survival time, dose: 400.0 mg/kg/injection, schedule: Q01DX009 (ip), vehicle: saline with Tween-80
[4] = endpoint: mean survival time, dose: 100.0 mg/kg/injection, schedule: Q04DX003 (ip), vehicle: saline with Tween-80
[5] = endpoint: mean survival time, dose: 200.0 mg/kg/injection, schedule: Q04DX003 (ip), vehicle: saline with Tween-80
[6] = endpoint: mean survival time, dose: 400.0 mg/kg/injection, schedule: Q04DX003 (ip), vehicle: saline with Tween-80
[7] = endpoint: mean survival time, dose: 200.0 mg/kg/injection, schedule: Q01DX001 (ip), vehicle: Klucel (hydroxypropylcellulose) (HPC)
[8] = endpoint: mean survival time, dose: 100.0 mg/kg/injection, schedule: Q04DX003 (ip), vehicle: saline
[9] = endpoint: mean survival time, dose: 200.0 mg/kg/injection, schedule: Q04DX003 (ip), vehicle: saline
[10] = endpoint: mean survival time, dose: 400.0 mg/kg/injection, schedule: Q04DX003 (ip), vehicle: saline
[11] = endpoint: mean survival time, dose: 100.0 mg/kg/injection, schedule: Q01DX001 (ip), vehicle: saline with Tween-80
[12] = endpoint: mean survival time, dose: 200.0 mg/kg/injection, schedule: Q01DX001 (ip), vehicle: saline with Tween-80
[13] = endpoint: mean survival time, dose: 400.0 mg/kg/injection, schedule: Q01DX001 (ip), vehicle: saline with Tween-80

In the case of `CC(C)(CO)COC(=O)NC1=C(N2CC2)C(=O)C(NC(=O)OCC(C)(C)CO)=C(N2CC2)C1=O`, the T/C (endpoint: mean survival time, dose: 0.75 mg/kg/injection, schedule: Q01DX009 (ip), vehicle: water) is reported as 119 % of control and 121 % of control, the T/C (endpoint: mean survival time, dose: 1.5 mg/kg/injection, schedule: Q01DX009 (ip), vehicle: water) is reported as 122 % of control and 106 % of control and the T/C (endpoint: mean survival time, dose: 12.0 mg/kg/injection, schedule: Q01DX009 (ip), vehicle: water) is reported as 166 % of control and 169 % of control.
With `O=C(CNC(=O)c1ccccc1)N/N=C/Cc1ccccc1` the T/C [1] was 97 % of control, the T/C [2] was 104 % of control and the T/C [3] was 104 % of control.
`COC(=O)CCC1c2[nH]c3ccccc3c2CCN1C` (stereo not drawn) was tested, and the T/C [4] was 93 % of control, the T/C [5] was 102 % of control and the T/C [6] was 102 % of control.
With `COc1cccc(NC2=NCCO2)c1` the T/C [4] was 96 % of control and the T/C [5] was 98 % of control.
With `Clc1ccc(/C=N/N=C/c2ccc(Cl)cc2Cl)c(Cl)c1` the T/C (endpoint: mean survival time, dose: 100.0 mg/kg/injection, schedule: Q01DX001 (ip), vehicle: Klucel (hydroxypropylcellulose) (HPC)) was 95 % of control, the T/C [7] was 89 % of control and the T/C (endpoint: mean survival time, dose: 400.0 mg/kg/injection, schedule: Q01DX001 (ip), vehicle: Klucel (hydroxypropylcellulose) (HPC)) was 103 % of control.
`CC1(C)CCCC2(C)CC/C(=N\NC(N)=O)C=C12` (stereo not drawn) was tested, and the T/C [1] was 93 % of control, the T/C [4] was 95 % of control and the T/C [2] was 89 % of control. For the same molecule, the T/C [5] was 96 % of control, the T/C [3] was 88 % of control and the T/C [6] was 96 % of control.
For `O=C1CC(NC(=O)C(F)(F)F)C(=O)O1` (stereo not drawn), the T/C [8] was 94 % of control, the T/C [9] was 95 % of control and the T/C [10] was 94 % of control.
With `Cc1c2c(cc3c1CCC1(C)C(C(C)CCC(C)C(C)C)CC(O)C31O)CCCC2` (stereo not drawn) the T/C (endpoint: mean survival time, dose: 50.0 mg/kg/injection, schedule: Q01DX001 (ip), vehicle: saline with Tween-80) was 92 % of control, the T/C [11] was 94 % of control and the T/C [4] was 96 % of control. For the same molecule, the T/C [12] was 92 % of control, the T/C [5] was 98 % of control and the T/C [6] was 98 % of control.
With `CN(C)CCC[n+]1cc2c3ccccc3c(N)cc2c2ccccc21` the T/C (endpoint: mean survival time, dose: 3.13 mg/kg/injection, schedule: Q04DX003 (ip), vehicle: water) was 103 % of control, the T/C (endpoint: mean survival time, dose: 6.25 mg/kg/injection, schedule: Q04DX003 (ip), vehicle: water) was 106 % of control and the T/C (endpoint: mean survival time, dose: 12.5 mg/kg/injection, schedule: Q04DX003 (ip), vehicle: water) was 103 % of control. The T/C (endpoint: mean survival time, dose: 25.0 mg/kg/injection, schedule: Q04DX003 (ip), vehicle: water) was 109 % of control and the T/C (endpoint: mean survival time, dose: 50.0 mg/kg/injection, schedule: Q04DX003 (ip), vehicle: water) was 109 % of control.
With `CO[C@H]1C[C@](C)(O)Cc2cc3c(c(O)c21)C(=O)c1c(O)cc2c(c1C3=O)O[C@@H]1O[C@@]2(C)[C@H](O)[C@@H](N(C)C)[C@@H]1O` the T/C (endpoint: mean survival time, dose: 0.78 mg/kg/injection, schedule: Q01DX009 (ip), vehicle: other) was 123 % of control and 112 % of control, the T/C (endpoint: mean survival time, dose: 3.12 mg/kg/injection, schedule: Q01DX009 (ip), vehicle: other) was 117 % of control and the T/C (endpoint: mean survival time, dose: 3.13 mg/kg/injection, schedule: Q01DX009 (ip), vehicle: other) was 151 % of control. The T/C (endpoint: mean survival time, dose: 3.13 mg/kg/injection, schedule: Q01DX009 (oral), vehicle: other) was 112 % of control, the T/C (endpoint: mean survival time, dose: 3.13 mg/kg/injection, schedule: Q01DX009 (oral), vehicle: saline) was 102 % of control and the T/C (endpoint: mean survival time, dose: 6.25 mg/kg/injection, schedule: Q01DX009 (oral), vehicle: other) was 116 % of control. The T/C (endpoint: mean survival time, dose: 6.25 mg/kg/injection, schedule: Q01DX009 (oral), vehicle: saline) was 116 % of control, the T/C (endpoint: mean survival time, dose: 12.5 mg/kg/injection, schedule: Q01DX009 (oral), vehicle: other) was 153 % of control and the T/C (endpoint: mean survival time, dose: 25.0 mg/kg/injection, schedule: Q01DX009 (oral), vehicle: other) was 208 % of control. The T/C (endpoint: mean survival time, dose: 25.0 mg/kg/injection, schedule: Q01DX009 (oral), vehicle: saline) was 183 % of control, the T/C (endpoint: mean survival time, dose: 50.0 mg/kg/injection, schedule: Q01DX009 (oral), vehicle: other) was 102 % of control and the T/C (endpoint: mean survival time, dose: 50.0 mg/kg/injection, schedule: Q01DX009 (oral), vehicle: saline) was 168 % of control. The T/C (endpoint: median survival time, dose: 6.7 mg/kg/injection, schedule: Q01DX009 (ip), vehicle: other) was 197 % of control and 225 % of control, the T/C (endpoint: median survival time, dose: 10.0 mg/kg/injection, schedule: Q01DX009 (ip), vehicle: other) was 208 % of control and 250 % of control and the T/C (endpoint: median survival time, dose: 15.0 mg/kg/injection, schedule: Q01DX009 (ip), vehicle: other) was 302 % of control and 332 % of control. For the same molecule, the T/C (endpoint: median survival time, dose: 22.5 mg/kg/injection, schedule: Q01DX009 (ip), vehicle: other) was 152 % of control and 169 % of control.
For `c1ccc(N=N/C(=N/Nc2ccccc2)c2ccccc2)cc1`, the T/C (endpoint: mean survival time, dose: 6.25 mg/kg/injection, schedule: Q01DX009 (ip), vehicle: saline with Tween-80) was 104 % of control, the T/C (endpoint: mean survival time, dose: 12.5 mg/kg/injection, schedule: Q01DX009 (ip), vehicle: saline with Tween-80) was 101 % of control and the T/C (endpoint: mean survival time, dose: 25.0 mg/kg/injection, schedule: Q01DX009 (ip), vehicle: saline with Tween-80) was 98 % of control.
For `CC(=O)OCCCOC(C)=O`, the T/C [11] was 93 % of control, the T/C [12] was 112 % of control and the T/C [13] was 101 % of control.
With `CCOC(=O)Nc1cc2c(c(N)n1)N=C(CCc1ccccc1)CN2` the T/C (endpoint: mean survival time, dose: 25.0 mg/kg/injection, schedule: Q01DX001 (ip), vehicle: Klucel (hydroxypropylcellulose) (HPC)) was 107 % of control, the T/C (endpoint: mean survival time, dose: 50.0 mg/kg/injection, schedule: Q01DX001 (ip), vehicle: Klucel (hydroxypropylcellulose) (HPC)) was 114 % of control and the T/C [7] was 116 % of control.
`CC(C#N)N(C)C` (stereo not drawn) was tested, and the T/C (endpoint: mean survival time, dose: 10.0 mg/kg/injection, schedule: Q04DX003 (ip), vehicle: saline) was 97 % of control, the T/C (endpoint: mean survival time, dose: 20.0 mg/kg/injection, schedule: Q04DX003 (ip), vehicle: saline) was 104 % of control and the T/C (endpoint: mean survival time, dose: 40.0 mg/kg/injection, schedule: Q04DX003 (ip), vehicle: saline) was 97 % of control.
In the case of `Cc1ccc(S(=O)C(c2ccccc2)C(c2ccccc2)C(C)O)cc1` (stereo not drawn), the T/C [4] is reported as 90 % of control, the T/C [5] is reported as 94 % of control and the T/C [6] is reported as 90 % of control.
In the case of `Cc1ccc(N=Cc2cc(I)cc(I)c2O)cc1.Cc1ccc(N=Cc2cc(I)cc(I)c2O)cc1.[Co]`, the T/C (endpoint: mean survival time, dose: 50.0 mg/kg/injection, schedule: Q04DX003 (ip), vehicle: saline) is reported as 87 % of control, the T/C [8] is reported as 104 % of control and the T/C [9] is reported as 96 % of control.
`COc1cc(OC)cc(C(c2nccc3cc(OC)c(OC)cc23)C(O)(C(F)(F)F)C(F)(F)F)c1` (stereo not drawn) was tested, and the T/C [11] was 97 % of control, the T/C [1] was 90 % of control and the T/C [12] was 93 % of control. For the same molecule, the T/C [2] was 93 % of control, the T/C [13] was 86 % of control and the T/C [3] was 89 % of control.
In the case of `Cc1ccc(S(=O)(=O)OC2C3OCC(O3)C3OC(C)OC32)cc1` (stereo not drawn), the T/C [1] is reported as 92 % of control, the T/C [2] is reported as 95 % of control and the T/C [3] is reported as 95 % of control.
With `ON=C1c2cc(Br)ccc2-c2ccc(Br)cc21` the T/C (endpoint: mean survival time, dose: 50.0 mg/kg/injection, schedule: Q01DX001 (ip), vehicle: carboxymethylcellulose (CMC)) was 104 % of control, the T/C (endpoint: mean survival time, dose: 100.0 mg/kg/injection, schedule: Q01DX001 (ip), vehicle: carboxymethylcellulose (CMC)) was 102 % of control and the T/C (endpoint: mean survival time, dose: 200.0 mg/kg/injection, schedule: Q01DX001 (ip), vehicle: carboxymethylcellulose (CMC)) was 98 % of control. The T/C (endpoint: mean survival time, dose: 400.0 mg/kg/injection, schedule: Q01DX001 (ip), vehicle: carboxymethylcellulose (CMC)) was 102 % of control.
For `Cc1cc(I)ccc1NC(=S)Nc1ccccc1F`, the T/C (endpoint: mean survival time, dose: 50.0 mg/kg/injection, schedule: Q01DX009 (ip), vehicle: saline with Tween-80) was 93 % of control, the T/C [11] was 100 % of control and the T/C [1] was 90 % of control. For the same molecule, the T/C [12] was 96 % of control, the T/C [2] was 93 % of control and the T/C [13] was 96 % of control.
For `COc1ccc(NC(=O)Oc2ccc(SC)cc2)cc1`, the T/C (endpoint: mean survival time, dose: 100.0 mg/kg/injection, schedule: Q04DX002 (ip), vehicle: saline with Tween-80) was 98 % of control, the T/C (endpoint: mean survival time, dose: 200.0 mg/kg/injection, schedule: Q04DX002 (ip), vehicle: saline with Tween-80) was 102 % of control and the T/C (endpoint: mean survival time, dose: 400.0 mg/kg/injection, schedule: Q04DX002 (ip), vehicle: saline with Tween-80) was 98 % of control.
For `COc1ccc(CNCCO)cc1O`, the T/C (endpoint: mean survival time, dose: 100.0 mg/kg/injection, schedule: Q01DX001 (ip), vehicle: saline) was 101 % of control, the T/C (endpoint: mean survival time, dose: 200.0 mg/kg/injection, schedule: Q01DX001 (ip), vehicle: saline) was 98 % of control and the T/C (endpoint: mean survival time, dose: 400.0 mg/kg/injection, schedule: Q01DX001 (ip), vehicle: saline) was 98 % of control.
With `Cc1ccc(S(=O)(=O)Cl)cc1` the T/C (endpoint: mean survival time, dose: 100.0 mg/kg/injection, schedule: Q04DX002 (ip), vehicle: saline) was 91 % of control and the T/C (endpoint: mean survival time, dose: 200.0 mg/kg/injection, schedule: Q04DX002 (ip), vehicle: saline) was 100 % of control.
`COC1CC2c3ccccc3C1C(C)=[N+]2C` (stereo not drawn) was tested, and the T/C [8] was 101 % of control, the T/C [9] was 95 % of control and the T/C [10] was 94 % of control.
